Assays:
[1] = test system: female NMRI mice; experiment: Anorectic action: cumulative evaporated milk consumption after 24 h feed removal; format: in vivo; conditions: compared with control animals
Experimental: The activity of the compounds was assayed as follows:
The anorectic action was tested on female NMRI mice. After removal of feed for 24 hours, the preparation to be tested was administered intraperitoneally (ip) or by gavage (po). The animals were housed singly and, with free access to drinking water, they were offered evaporated milk 30 minutes after administration of the preparation. The consumption of evaporated milk was determined and the general behavior of the animals was monitored every half an hour for 7 hours. The measured milk consumption was compared to that of vehicle-treated control animals.

| melting point [°C] | SMILES | Reduction in cumulative milk consumption as % of the control ([1]; dose 20 mg/kg) [%] | Reduction in cumulative milk consumption as % of the control ([1]; dose 50 mg/kg) [%] |
| --- | --- | --- | --- |
| 163 | CS(=O)(=O)C1Cc2cc(Cl)ccc2C1O (stereo not shown) [Example 1, 5-Chloro-2-methylsulfonylindan-1-ol] | 50 |  |
| 145 | CCS(=O)(=O)C1Cc2cc(Cl)ccc2C1O (stereo not shown) [Example 3, 5-Chloro-2-ethanesulfonylindan-1-ol] |  |  |
|  | CSC1Cc2cc(Cl)ccc2C1O (stereo not shown) [Example 4, 5-Chloro-2-methylsulfanylindan-1-ol] |  | 85 |

Source: patent publication US6657086B2, “C2-substituted indan-1-ols and their derivatives, processes for their preparation and their use as pharmaceuticals” (Aventis Pharma Deutschland GmbH, priority 2001, dated 2003)
